# Assay results: patent US5087440A, “Heterocyclic derivatives of DTPA used for magnetic resonance imaging” (Salutar, Inc., priority 1990, dated 1992)
# Key:
# [1] = iv administration; AU-81889/87; cited from earlier work
# Swiss Webster mice = assay: Acute toxicity (LD50), iv administration to mice; type: in vivo; details: 500 mM Gd chelate alone or with 25 mM added Ca chelate
# Protocol: Acute toxicity (LD50) values were determined for compositions comprising 500 mM Gd DTPA-APD alone or together with 25 mM of the calcium chelate of DTPA-APD and, for further comparison, for compositions comprising 500 mM Gd DTPA-dimeglumine alone or together with 25 mM of a calcium chelate of DTPA or a DTPA-bisamide (the bismethylamide. The acute toxicities were determined by iv administrations of the compositions to Swiss Webster mice.
compound,measurement,setting,value
CNC[C@H](O)[C@@H](O)[C@H](O)[C@H](O)CO.CNC[C@H](O)[C@@H](O)[C@H](O)[C@H](O)CO.O=C([O-])CN(CCN(CC(=O)[O-])CC(=O)O)CCN(CC(=O)[O-])CC(=O)O.[Gd+3] [Gd DTPA],gadolinium retention (in words),[1],gadolinium retention following iv administration
same,LD50 (iv mice),Swiss Webster mice,5.5 mmol/kg
